Source: patent publication US6770303B1, “Use of antifungal and/or antibacterial and/or antiviral compounds” (priority 1998, dated 2004)
“Also recorded” adds a separate entry of the source. Where two headings read alike, the source gives them in different places.

Columns and labels:
[1] = system: phenylalanine ammonia lyase (PAL); assay: PAL activity in tobacco cell cultures after potentiator pretreatment and elicitation; assay type: cell-based, Nicotiana tabacum
Protocol: Measurement of the activity of PAL (phenylalanine ammonia lyase): key enzyme in the phenylpropanoid pathway and more particularly in the lignification involved in defense reactions in plants (most particularly in monocotyledon plants).
(§1) The cell suspensions used are suspensions of Nicotiana tabacum BY (bright yellow) obtained from Washington State University (Pullman, USA). They are cultured in the dark, at 24° C. with agitation (120 rpm) and subcultured every 7 days by transferring 10 ml of culture into 70 ml of fresh medium.
(§2) The cells are pretreated 5 days after subculturing (end of the exponential growth phase) and elicited on the 6th day. Two hours before pretreatment, 10 ml of cells are transferred into 25 ml conical flasks. For the phenylalanine ammonia lyase (PAL) and lipoxygenase (LOX) activity analyses and the determination of the salicylic acid (SA), the cells are harvested at the desired time by filtration on Whatman 3 M paper, frozen in liquid nitrogen and stored at −80° C. until the analysis.
The cells (0.5 g) are ground in 0.1 M pH 8.8 borate buffer in the presence of active charcoal and quartz. The grinding ratio is 1/5 (w/v). After centrifugation, 100 μl of cell extract are incubated for 1 h at 37° C. in the presence of 200 μl of 0.1 M pH 8.8 borate buffer and 100 μl of a mixture of 0.1 M pH 8.8 borate buffer and 300 μM L-phenylalanine (labelled and cold mixture); the final solution has a specific activity of 810,000 cpm/ml.
The reaction is quenched by adding a few drops of 9 N H2SO4. 2 ml of H2O are added. The reaction products are extracted by adding 2 ml of an ether/cyclohexane mixture (1/1, v/v). Since the phenylalanine is insoluble in this mixture, the reaction is counted on 1 ml in the presence of “multi-purpose” scintillation liquid.
(§3) In all cases, the pretreatment with the potentiator is carried out 18 hours before the elicitor treatment.
The samples for analysing the physiological effects are taken 4 hours, 12 hours or 24 hours after elicitation. The controls corresponding to a potentiation alone or an elicitation alone are systematically present for each sample taken.

[2] = system: lipoxygenase (LOX); assay: LOX activity in tobacco cell cultures after potentiator pretreatment and elicitation; assay type: cell-based, Nicotiana tabacum; conditions: for Effect on LOX activity, potentiator in itself / LOX activity, potentiator applied alone: no elicitor; for Effect on LOX activity, potentiator in itself: conclusion of Example 1; for LOX activity relative to the corresponding control: 18 h pretreatment
Protocol: Measurement of the activity of LOX (lipoxygenase) which is a key enzyme in the synthesis of jasmonic acid, another signal molecule.
as §1, §2
The cells (250 mg) are ground in 0.5 ml of extraction buffer in the presence of quartz.
The ground mixture is centrifuged for 15 min at 4° C. and 13,000 rpm. 2.87 ml of 0.1 M pH 6.8 Tris buffer are added to the cell extract, followed by 30 μl of 10 mM linolenic acid. After stirring, the change in the OD is monitored at 234 nm.
as §3
[…] The controls corresponding to a potentiation alone or an elicitation alone are systematically present for each sample taken.

[3] = system: salicylic acid (SA); assay: Salicylic acid (SA) accumulation in tobacco cell cultures; assay type: cell-based, Nicotiana tabacum
Protocol: The samples (0.5 g) of tobacco cells or leaves are ground in liquid nitrogen and grinding is then continued in the presence of 0.8 ml of 90% methanol. A known amount of ^14C-labelled SA (1 nCi, 54 mCi/mol, Sigma) is then added in order to estimate the yield for the recovery of the endogenous SA. The amount of labelled SA added is less than the detection threshold for the analysis. […]
The samples are brought to pH 2 by addition of 2 M HCl and are then heated at 80° C. for one hour. […] 20 ml of this mixture, to which are added 3 ml of scintillation liquid (Ready Gel, Beckmann), are taken for counting of the residual radioactivity, which allows calculation of the SA recovery yield. The contents of total SA determined correspond to the sum of the SA contents in free form and of the SA contents in conjugated form, the SA being released during the hydrolysis.
The elution is programmed on a Waters HPLC system in an isocratic system for 10 min. […] The SA is quantified by fluorometry (λ excitation=315 nm, λ emission=405 nm). […] The amounts of SA injected are calculated by means of comparing the area of the peaks corresponding to SA with that of the standard molecule injected. The SA contents in the samples are then calculated, taking the recovery yield into account. […]

[4] = system: Erysiphe graminis; assay: Open-field test on powdery mildew of wheat by foliar treatment; assay type: in vivo; conditions: winter wheat, fosetyl-Al 1000 g/ha a.m., Agrimer 540 1 l/ha
Protocol: Open-field Test on Powdery Mildew (Erysiphe graminis) of Wheat (Triticum aestivum, Winter Variety) by Foliar Treatment.
(§4) The fungicide used is fosetyl-Al (WG applied at 1.25 kg/ha, i.e. 1000 g/ha of active material) and the algal extract (solution LC, 1 l/ha) is Agrimer 540 from the company Agrimer.
All these products are used at a rate of 1000 g/ha and the percentage of plants attacked (% of leaves destroyed) by the disease is determined, on the one hand on a foliar stage treated semi-curatively (reading taken 22 days after the treatment T), and on the other hand on a foliar stage treated curatively (reading taken 27 days after the treatment T).

[5] = system: tobacco cell cultures; assay type: cell-based, Nicotiana tabacum
Text: Fosetyl-Al and phosphorous acid have mainly been selected as potentiators in the biological experimentation, but, for reasons of toxicity of fosetyl-Al on tobacco cell cultures, we replaced it with fosetyl sodium in the cell tests.

[6] = system: Erysiphe cichoracerum; assay: Open-field trial on powdery mildew of melon by foliar treatment; assay type: in vivo; conditions: Agrimer 540 1 l/ha
Protocol: Open-field Trial on Powdery Mildew (Erysiphe cichoracerum) of Melon (Cucumis melo, Rochet Variety) by Foliar Treatment.
as §4
All of these products are used at a dose of 1000 g/ha and the percentage of plants attacked by the disease is determined 15 days after two treatments T1 and T2 (carried out with an interval of 7 days).

[7] = cells potentiated and elicited with a pectin oligomer, compared with the other conditions

CSC(=O)c1cccc2nnsc12 [BTH, reference compound]
PAL activity of potentiated and elicited cells (FIG. 21) [1, 7]: much higher

CCO[PH](=O)O [fosetyl-Na]
Effect on LOX activity, potentiator in itself [2]: do not in themselves have any effect
Effect on synthesis of SA, potentiator in itself ([3]; no elicitor, conclusion of Example 1): do not in themselves have any effect
PAL activity of pretreated cells versus unconditioned cells ([1]; 5 mM conditioning 18 h, then 2 nM β-megaspermine (FIG. 9)): always greater than that observed in the unconditioned cells
Effect of conditioning on PAL activity after elicitation ([1]; 5 mM conditioning 18 h, then 20 μg/ml pectin oligomers): maintains the PAL activity at a high level 11 h after the elicitation
PAL activity of potentiated and elicited cells (FIG. 21) [1, 7]: much higher
Induction of PAL activity, potentiator applied alone ([1]; no elicitor): No significant effect; also recorded: do not in themselves have any effect

CCO[PH](=O)O [Fosetyl-Al, fosetyl-Al]
% of leaves destroyed at T + 22, semi-curative ([4]; untreated control 91.1): 77.8%
% of leaves destroyed at T + 27, curative ([4]; untreated control 100): 100%
Toxicity on tobacco cell cultures [5]: toxicity
percentage of plants attacked by the disease, % at T2 + 15 days ([6]; T2 7 days after T1, fosetyl-Al 1000 g/ha a.m., untreated control 95.0): 80.0%
percentage of plants attacked by the disease, % at T1 + 15 days ([6]; fosetyl-Al 1000 g/ha a.m., untreated control 91.7): 80.0%

OP(O)O [H3PO3, phosphorous acid]
LOX activity relative to the corresponding control ([2]; measured 12 h after elicitation with 2 nM β-megaspermine): about 28 times
LOX activity relative to the corresponding control ([2]; measured 21 h after elicitation with 10 μg/ml oligosaccharide elicitor of β-glucan type): about 4 times
LOX activity, potentiator applied alone ([2]; 30 h (18 h of pretreatment+12 h) after application): No inductive effect
LOX activity, potentiator applied alone ([2]; 39 h (18 h of pretreatment+21 h) after application): mild inductive effect
Effect on LOX activity, potentiator in itself [2]: do not in themselves have any effect
Effect on synthesis of SA, potentiator in itself [3]: do not in themselves have any effect
Rate of synthesis of SA relative to unconditioned cells [3]: large increase
Effect of conditioning on PAL activity after elicitation [1]: strong stimulation of the PAL activity; also recorded: greater than that observed in the unconditioned cells
Effect of pretreatment on induction of PAL activity by the elicitor [1]: markedly amplifies the response to the elicitor
Induction of PAL activity, potentiator applied alone [1]: No significant inductive effect; also recorded: do not in themselves have any effect
PAL activity of potentiated and elicited cells (FIG. 21) [1]: much higher
PAL activity of pretreated cells versus unconditioned cells [1]: always greater than that observed in the unconditioned cells
PAL activity relative to the level of the unconditioned cells [1]: 4 times
